pIC50: −log10 of the molar value.
Tests used:
CK1α = molecular target: T1, CK1α (Homo sapiens, UniProt P48729+Q96SW2); experiment: Western blot, degradation of substrate protein in hPBMCs; type: cell-based
T1 construct: effects of the compounds of the present disclosure on the expression of target proteins in cells; endogenous in cells; host or cells: human PBMCs (Milecell Biotechnologies)

IKZF1 = molecular target: T2, IKZF1 (Homo sapiens, UniProt Q13422+Q96SW2); experiment: as above; type: cell-based
T2 construct: effects of the compounds of the present disclosure on the expression of target proteins in cells; endogenous in cells; host or cells: human PBMCs (Milecell Biotechnologies)

WEE1 = molecular target: T3, WEE1 (Homo sapiens, UniProt P30291+Q96SW2); experiment: as above; type: cell-based
T3 construct: effects of the compounds of the present disclosure on the expression of target proteins in cells; endogenous in cells; host or cells: human PBMCs (Milecell Biotechnologies)

IKZF2 = molecular target: T4, IKZF2 (Homo sapiens, UniProt Q96SW2+Q9UKS7); experiment: as above; type: cell-based
T4 construct: effects of the compounds of the present disclosure on the expression of target proteins in cells; endogenous in cells; host or cells: human PBMCs (Milecell Biotechnologies)

IKZF3 = molecular target: T5, IKZF3 (Homo sapiens, UniProt Q96SW2+Q9UKT9); experiment: as above; type: cell-based
T5 construct: effects of the compounds of the present disclosure on the expression of target proteins in cells; endogenous in cells; host or cells: human PBMCs (Milecell Biotechnologies)

GSPT1 = experiment: as above; type: cell-based, Human
[1] = molecular target: T6, human Cereblon WT GST-tagged protein (Homo sapiens, UniProt Q96SW2); experiment: CRBN-binding affinity, HTRF (CEREBLON BINDING kit); settings: for inhibition at 0.5 µM: read-out: Inhibition Rate at 0.5 µM (%); for inhibition at 2 µM: read-out: Inhibition Rate at 2 µM (%)
T6 construct: purchased CISBIO 64BDCRBNPEH

[2] = Western blot, 24 hours of compound treatment, compounds tested at 50 nM and 500 nM (concentration for the table not stated)
[3] = 24 hours treatment, compounds at 50 nM and 500 nM (concentration behind the class not stated)

T6 sequence (Q96SW2 whole entry): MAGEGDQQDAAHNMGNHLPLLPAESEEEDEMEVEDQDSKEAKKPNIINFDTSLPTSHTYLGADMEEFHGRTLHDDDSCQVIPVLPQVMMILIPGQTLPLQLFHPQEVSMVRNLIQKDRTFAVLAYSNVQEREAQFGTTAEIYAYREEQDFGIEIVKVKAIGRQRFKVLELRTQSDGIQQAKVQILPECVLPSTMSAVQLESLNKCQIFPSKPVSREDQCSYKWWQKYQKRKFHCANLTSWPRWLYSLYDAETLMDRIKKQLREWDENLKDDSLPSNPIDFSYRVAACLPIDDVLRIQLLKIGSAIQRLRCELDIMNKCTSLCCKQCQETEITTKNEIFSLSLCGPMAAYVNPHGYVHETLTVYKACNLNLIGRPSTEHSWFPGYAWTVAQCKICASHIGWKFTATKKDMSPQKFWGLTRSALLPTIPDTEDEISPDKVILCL
T2 sequence (Q13422 whole entry): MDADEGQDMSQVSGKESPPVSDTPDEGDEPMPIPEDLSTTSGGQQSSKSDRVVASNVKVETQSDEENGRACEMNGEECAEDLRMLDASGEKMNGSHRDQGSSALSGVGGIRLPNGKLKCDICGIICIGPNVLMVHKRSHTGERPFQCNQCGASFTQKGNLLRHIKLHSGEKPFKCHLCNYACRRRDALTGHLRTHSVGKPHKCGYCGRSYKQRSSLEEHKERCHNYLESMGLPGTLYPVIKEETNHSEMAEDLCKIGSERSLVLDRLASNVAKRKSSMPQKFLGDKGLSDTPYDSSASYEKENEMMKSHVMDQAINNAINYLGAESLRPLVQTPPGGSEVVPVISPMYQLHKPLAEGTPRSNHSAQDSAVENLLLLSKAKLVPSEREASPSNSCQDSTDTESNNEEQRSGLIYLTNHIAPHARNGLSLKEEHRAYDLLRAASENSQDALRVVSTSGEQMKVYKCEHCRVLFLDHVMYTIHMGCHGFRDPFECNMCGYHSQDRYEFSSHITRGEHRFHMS
T2 sequence (Q96SW2 whole entry): as the sequence (Q96SW2 whole entry) above
T2 sequence (Q16531 whole entry partner): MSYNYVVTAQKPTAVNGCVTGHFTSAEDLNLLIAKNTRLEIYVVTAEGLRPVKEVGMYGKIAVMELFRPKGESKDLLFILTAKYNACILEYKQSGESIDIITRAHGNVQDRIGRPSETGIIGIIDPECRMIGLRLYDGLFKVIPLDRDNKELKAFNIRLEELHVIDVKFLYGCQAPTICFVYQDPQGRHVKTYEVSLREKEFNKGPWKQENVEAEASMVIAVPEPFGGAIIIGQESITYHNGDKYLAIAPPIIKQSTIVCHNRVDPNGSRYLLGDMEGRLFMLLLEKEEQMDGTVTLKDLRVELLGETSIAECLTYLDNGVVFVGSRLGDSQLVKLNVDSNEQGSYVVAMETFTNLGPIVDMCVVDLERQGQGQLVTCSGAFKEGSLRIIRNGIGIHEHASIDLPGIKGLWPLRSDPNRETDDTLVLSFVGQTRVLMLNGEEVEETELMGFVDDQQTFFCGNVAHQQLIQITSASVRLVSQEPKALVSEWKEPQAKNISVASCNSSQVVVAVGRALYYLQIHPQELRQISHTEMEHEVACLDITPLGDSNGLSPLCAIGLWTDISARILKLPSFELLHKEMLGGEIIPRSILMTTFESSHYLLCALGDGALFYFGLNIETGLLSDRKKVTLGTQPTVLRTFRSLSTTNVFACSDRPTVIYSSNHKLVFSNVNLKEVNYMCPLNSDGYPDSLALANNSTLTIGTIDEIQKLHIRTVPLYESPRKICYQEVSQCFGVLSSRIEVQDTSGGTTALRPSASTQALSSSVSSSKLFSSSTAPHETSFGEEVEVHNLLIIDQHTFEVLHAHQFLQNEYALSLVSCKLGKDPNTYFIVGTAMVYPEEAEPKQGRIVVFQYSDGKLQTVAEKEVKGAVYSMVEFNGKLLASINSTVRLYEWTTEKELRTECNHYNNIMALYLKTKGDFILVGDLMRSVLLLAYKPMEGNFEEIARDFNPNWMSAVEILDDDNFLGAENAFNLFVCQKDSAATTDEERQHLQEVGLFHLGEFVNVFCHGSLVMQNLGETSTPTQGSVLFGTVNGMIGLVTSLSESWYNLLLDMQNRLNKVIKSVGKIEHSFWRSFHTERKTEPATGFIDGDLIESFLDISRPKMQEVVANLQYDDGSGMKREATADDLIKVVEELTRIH
T1 sequence (P48729 whole entry): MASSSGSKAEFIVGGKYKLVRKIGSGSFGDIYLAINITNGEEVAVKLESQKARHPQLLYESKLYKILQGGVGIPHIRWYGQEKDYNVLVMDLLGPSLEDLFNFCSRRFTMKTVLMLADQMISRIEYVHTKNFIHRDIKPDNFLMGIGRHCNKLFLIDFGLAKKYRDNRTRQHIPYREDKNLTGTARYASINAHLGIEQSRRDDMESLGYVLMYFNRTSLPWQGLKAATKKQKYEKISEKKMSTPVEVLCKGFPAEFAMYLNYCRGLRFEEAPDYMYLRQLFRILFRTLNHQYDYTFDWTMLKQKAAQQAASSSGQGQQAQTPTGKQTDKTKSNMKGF
T1 sequence (Q96SW2 whole entry): as the sequence (Q96SW2 whole entry) above
T1 sequence (Q16531 whole entry partner): as the sequence (Q16531 whole entry partner) above
T3 sequence (P30291 whole entry): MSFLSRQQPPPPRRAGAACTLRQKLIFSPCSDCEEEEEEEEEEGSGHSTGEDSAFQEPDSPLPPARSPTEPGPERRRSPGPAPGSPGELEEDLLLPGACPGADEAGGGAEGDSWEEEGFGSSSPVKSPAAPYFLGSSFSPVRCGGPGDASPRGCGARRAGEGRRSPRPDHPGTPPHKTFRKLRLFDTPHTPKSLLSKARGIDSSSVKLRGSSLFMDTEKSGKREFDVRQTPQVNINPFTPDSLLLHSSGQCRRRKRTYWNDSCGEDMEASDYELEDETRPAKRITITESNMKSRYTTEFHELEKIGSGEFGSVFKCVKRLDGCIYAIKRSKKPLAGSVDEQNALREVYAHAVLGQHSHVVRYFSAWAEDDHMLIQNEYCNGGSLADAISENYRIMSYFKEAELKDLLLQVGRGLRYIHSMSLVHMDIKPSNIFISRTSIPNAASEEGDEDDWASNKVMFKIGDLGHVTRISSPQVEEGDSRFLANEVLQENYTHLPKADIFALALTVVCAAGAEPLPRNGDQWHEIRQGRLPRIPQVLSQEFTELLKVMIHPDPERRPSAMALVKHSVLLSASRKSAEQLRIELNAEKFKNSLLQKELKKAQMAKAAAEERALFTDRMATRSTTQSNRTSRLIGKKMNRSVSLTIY
T3 sequence (Q96SW2 whole entry): as the sequence (Q96SW2 whole entry) above
T3 sequence (Q16531 whole entry partner): as the sequence (Q16531 whole entry partner) above
T4 sequence (Q9UKS7 whole entry): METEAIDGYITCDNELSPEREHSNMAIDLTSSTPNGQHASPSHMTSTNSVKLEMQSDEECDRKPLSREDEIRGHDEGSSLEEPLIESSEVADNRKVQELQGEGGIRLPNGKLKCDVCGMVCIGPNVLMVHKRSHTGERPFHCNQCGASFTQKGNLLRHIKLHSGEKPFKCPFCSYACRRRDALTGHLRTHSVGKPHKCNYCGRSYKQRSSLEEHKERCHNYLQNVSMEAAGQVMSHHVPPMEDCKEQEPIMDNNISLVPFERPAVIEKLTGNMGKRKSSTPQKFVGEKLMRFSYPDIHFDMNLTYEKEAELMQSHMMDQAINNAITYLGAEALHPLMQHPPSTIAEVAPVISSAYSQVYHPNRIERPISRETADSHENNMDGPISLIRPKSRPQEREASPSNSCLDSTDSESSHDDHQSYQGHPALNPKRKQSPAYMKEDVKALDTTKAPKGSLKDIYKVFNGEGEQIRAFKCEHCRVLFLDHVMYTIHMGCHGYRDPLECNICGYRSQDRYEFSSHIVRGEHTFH
T4 sequence (Q96SW2 whole entry): as the sequence (Q96SW2 whole entry) above
T4 sequence (Q16531 whole entry partner): as the sequence (Q16531 whole entry partner) above
T5 sequence (Q9UKT9 whole entry): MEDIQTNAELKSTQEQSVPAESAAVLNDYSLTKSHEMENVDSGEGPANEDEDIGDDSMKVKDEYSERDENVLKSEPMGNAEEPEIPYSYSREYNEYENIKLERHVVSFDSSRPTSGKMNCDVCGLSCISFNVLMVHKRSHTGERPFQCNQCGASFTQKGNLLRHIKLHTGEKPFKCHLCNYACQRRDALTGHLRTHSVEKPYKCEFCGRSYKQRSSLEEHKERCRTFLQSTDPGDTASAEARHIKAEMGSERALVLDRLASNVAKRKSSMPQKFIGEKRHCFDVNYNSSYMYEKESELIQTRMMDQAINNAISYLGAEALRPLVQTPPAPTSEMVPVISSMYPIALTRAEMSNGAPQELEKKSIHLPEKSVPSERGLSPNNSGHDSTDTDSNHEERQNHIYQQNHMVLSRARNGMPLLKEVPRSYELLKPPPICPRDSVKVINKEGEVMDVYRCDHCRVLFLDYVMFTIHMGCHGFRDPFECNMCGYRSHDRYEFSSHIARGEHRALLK
T5 sequence (Q96SW2 whole entry): as the sequence (Q96SW2 whole entry) above
T5 sequence (Q16531 whole entry partner): as the sequence (Q16531 whole entry partner) above

Row | SMILES | CK1α substrate protein remaining % (CK1α; [2]) | IKZF 1 substrate protein remaining % (IKZF1; [2]) | Wee1 substrate protein remaining % (WEE1; [2]) | IKZF2 substrate protein remaining % (IKZF2; [2]) | IKZF3 substrate protein remaining % (IKZF3; [2]) | GSPT1 substrate protein remaining % (GSPT1; [2]) | inhibition at 0.5 µM [1] [%] | inhibition at 2 µM [1] [%] | CK1α substrate protein remaining % (CK1α; [3]) | IKZF 1 substrate protein remaining % (IKZF1; [3]) | Wee1 substrate protein remaining % (WEE1; [3]) | IKZF2 substrate protein remaining % (IKZF2; [3]) | IKZF3 substrate protein remaining % (IKZF3; [3]) | GSPT1 substrate protein remaining % (GSPT1; [3]) | pIC50 ([1]; CRBN binding, HTRF, 3 hours at room temperature, read-out: HTRF IC50)
1 | O=C1CCC(N2Cc3c(CN4CC=C(c5ccsc5)CC4)cccc3C2=S)C(=O)N1 (centres unmarked) [GT-08300, 3-(4-((4-(thiophen-3-yl)-3,6-dihydropyridin-1(2H)-yl)methyl)-1-thioxoisoindolin-2-yl)piperidine-2,6-dione] | B (80%< substrate protein remaining %≤ 100%) | B (80%< substrate protein remaining %≤ 100%) | B (80%< substrate protein remaining %≤ 100%) | A (0% ≤ substrate protein remaining % ≤ 80%) | B (80%< substrate protein remaining %≤ 100%) | B (80%< substrate protein remaining %≤ 100%) | 40 to 53 | 60 to 80 |  |  |  |  |  |  | 
2 | O=C1CCC(N2Cc3c(CN4CCC(c5n[nH]c6cc(F)ccc56)CC4)cccc3C2=S)C(=O)N1 (centres unmarked) [GT-08849, 3-(4-((4-(6-fluoro-1H-indazol-3-yl)piperidin-1-yl)methyl)-1-thioxoisoindolin-2-yl)piperidine-2,6-dione] | B (80%< substrate protein remaining %≤ 100%) | B (80%< substrate protein remaining %≤ 100%) | A (0% ≤ substrate protein remaining % ≤ 80%) | B (80%< substrate protein remaining %≤ 100%) | B (80%< substrate protein remaining %≤ 100%) | A (0% ≤ substrate protein remaining % ≤ 80%) | 60 to 80 | 80 to 100 |  |  |  |  |  |  | 
3 | O=C1CCC(N2Cc3c(CN4CCC(c5ncc6ccsc6n5)CC4)cccc3C2=S)C(=O)N1 (centres unmarked) [GT-08936, 3-(4-((4-(thieno[2,3-d]pyrimidin-2-yl)piperidin-1-yl)methyl)-1-thioxoisoindolin-2-yl)piperidine-2,6-dione] |  |  |  |  |  |  | 60 to 80 | 80 to 100 | B (80%< substrate protein remaining %≤ 100%) | A (0% ≤ substrate protein remaining % ≤ 80%) | A (0% ≤ substrate protein remaining % ≤ 80%) | B (80%< substrate protein remaining %≤ 100%) | B (80%< substrate protein remaining %≤ 100%) | A (0% ≤ substrate protein remaining % ≤ 80%) | 
4 | O=C1CCC(N2Cc3c(CN4CCN(c5ncnc6sc7c(c56)CCCC7)CC4)cccc3C2=S)C(=O)N1 (centres unmarked) [GT-08924, 3-(4-((4-(5,6,7,8-tetrahydrobenzo[4,5]thieno[2,3-d]pyrimidin-4-yl)piperazin-1-yl)methyl)-1-thioxoisoindolin-2-yl)piperidine-2,6-dione] |  |  |  |  |  |  | 40 to 53 | 80 to 100 | B (80%< substrate protein remaining %≤ 100%) | B (80%< substrate protein remaining %≤ 100%) | A (0% ≤ substrate protein remaining % ≤ 80%) | A (0% ≤ substrate protein remaining % ≤ 80%) | B (80%< substrate protein remaining %≤ 100%) | B (80%< substrate protein remaining %≤ 100%) | 
5 | O=C1CCC(N2Cc3c(CN4CCN(c5nsc6cc(F)ccc56)CC4)cccc3C2=S)C(=O)N1 (centres unmarked) [GT-08839, 3-(4-((4-(6-fluorobenzo[d]isothiazol-3-yl)piperazin-1-yl)methyl)-1-thioxoisoindolin-2-yl)piperidine-2,6-dione] | B (80%< substrate protein remaining %≤ 100%) | B (80%< substrate protein remaining %≤ 100%) | A (0% ≤ substrate protein remaining % ≤ 80%) | B (80%< substrate protein remaining %≤ 100%) | B (80%< substrate protein remaining %≤ 100%) | B (80%< substrate protein remaining %≤ 100%) | 60 to 80 | 80 to 100 |  |  |  |  |  |  | 
6 | O=C1CCC(N2Cc3c(CN4CCN(c5nccc(Cl)c5Br)CC4)cccc3C2=S)C(=O)N1 (centres unmarked) [GT-08804, 3-(4-((4-(3-bromo-4-chloropyridin-2-yl)piperazin-1-yl)methyl)-1-thioxoisoindolin-2-yl)piperidine-2,6-dione] | B (80%< substrate protein remaining %≤ 100%) | B (80%< substrate protein remaining %≤ 100%) | A (0% ≤ substrate protein remaining % ≤ 80%) | B (80%< substrate protein remaining %≤ 100%) | B (80%< substrate protein remaining %≤ 100%) | B (80%< substrate protein remaining %≤ 100%) | 40 to 53 | 60 to 80 |  |  |  |  |  |  | 
7 | O=C1CCC(N2Cc3c(CN4CCN(c5ccc(Cl)c(Cl)c5)CC4)cccc3C2=S)C(=O)N1 (centres unmarked) [GT-08502, 3-(4-((4-(3,4-dichlorophenyl)piperazin-1-yl)methyl)-1-thioxoisoindolin-2-yl)piperidine-2,6-dione] | B (80%< substrate protein remaining %≤ 100%) | B (80%< substrate protein remaining %≤ 100%) | A (0% ≤ substrate protein remaining % ≤ 80%) | A (0% ≤ substrate protein remaining % ≤ 80%) | B (80%< substrate protein remaining %≤ 100%) | A (0% ≤ substrate protein remaining % ≤ 80%) | 40 to 53 | 60 to 80 |  |  |  |  |  |  | 
8 | O=C1CCC(N2Cc3c(CN4CC=C(c5cncc(Cl)c5Cl)CC4)cccc3C2=S)C(=O)N1 (centres unmarked) [GT-08460, 3-(4-((4,5-dichloro-3',6'-dihydro-[3,4'-bipyridin]-1'(2'H)-yl)methyl)-1-thioxoisoindolin-2-yl)piperidine-2,6-dione] | B (80%< substrate protein remaining %≤ 100%) | B (80%< substrate protein remaining %≤ 100%) | A (0% ≤ substrate protein remaining % ≤ 80%) | B (80%< substrate protein remaining %≤ 100%) | A (0% ≤ substrate protein remaining % ≤ 80%) | B (80%< substrate protein remaining %≤ 100%) | 60 to 80 | 80 to 100 |  |  |  |  |  |  | 
9 | O=C1CCC(N2Cc3cc(CN4CC=C(c5cccc6cnccc56)CC4)ccc3C2=S)C(=O)N1 (centres unmarked) [GT-05246, 3-(5-((4-(isoquinolin-5-yl)-3,6-dihydropyridin-1(2H)-yl)methyl)-1-thioxoisoindolin-2-yl)piperidine-2,6-dione] | B (80%< substrate protein remaining %≤ 100%) | B (80%< substrate protein remaining %≤ 100%) | A (0% ≤ substrate protein remaining % ≤ 80%) | B (80%< substrate protein remaining %≤ 100%) | B (80%< substrate protein remaining %≤ 100%) | A (0% ≤ substrate protein remaining % ≤ 80%) |  |  |  |  |  |  |  |  | 6.30 to 7.00
10 | O=C1CCC(N2Cc3c(CN4CCN(c5c[nH]c6ncccc56)CC4)cccc3C2=S)C(=O)N1 (centres unmarked) [GT-08841, 3-(4-((4-(1H-pyrrolo[2,3-b]pyridin-3-yl)piperazin-1-yl)methyl)-1-thioxoisoindolin-2-yl)piperidine-2,6-dione] | B (80%< substrate protein remaining %≤ 100%) | B (80%< substrate protein remaining %≤ 100%) | A (0% ≤ substrate protein remaining % ≤ 80%) | B (80%< substrate protein remaining %≤ 100%) | B (80%< substrate protein remaining %≤ 100%) | A (0% ≤ substrate protein remaining % ≤ 80%) | 60 to 80 | 80 to 100 |  |  |  |  |  |  | 
11 | CC1(C)CN(Cc2ccc3c(c2)CN(C2CCC(=O)NC2=O)C3=S)CCN1C(c1ccccc1)c1ccccc1 (centres unmarked) [GT-07845, 3-(5-((4-benzhydryl-3,3-dimethylpiperazin-1-yl)methyl)-1-thioxoisoindolin-2-yl)piperidine-2,6-dione] | B (80%< substrate protein remaining %≤ 100%) | A (0% ≤ substrate protein remaining % ≤ 80%) | A (0% ≤ substrate protein remaining % ≤ 80%) | A (0% ≤ substrate protein remaining % ≤ 80%) | B (80%< substrate protein remaining %≤ 100%) | B (80%< substrate protein remaining %≤ 100%) | 40 to 53 | 60 to 80 |  |  |  |  |  |  | 
12 | O=C1CCC(N2Cc3cc(CN4CCN(c5cccs5)CC4)ccc3C2=S)C(=O)N1 (centres unmarked) [GT-08168, 3-(5-((4-(thiophen-2-yl)piperazin-1-yl)methyl)-1-thioxoisoindolin-2-yl)piperidine-2,6-dione] |  |  |  |  |  |  | 80 to 100 | 80 to 100 | B (80%< substrate protein remaining %≤ 100%) | B (80%< substrate protein remaining %≤ 100%) | A (0% ≤ substrate protein remaining % ≤ 80%) | B (80%< substrate protein remaining %≤ 100%) | B (80%< substrate protein remaining %≤ 100%) | A (0% ≤ substrate protein remaining % ≤ 80%) | 
